Measurements: patent publication US7109193B2, “Tricyclic diazepines tocolytic oxytocin receptor antagonists” (Wyeth, priority 2001, dated 2006)

Biological target: T1, human vasopressin V2 receptor subtype (Homo sapiens, UniProt P30518)
T1 construct: host or cells: CHO cells (pZeoSV vector)
Assay: Vasopressin binding in Chinese Hamster Ovary cell membranes expressing human vasopressin V2 subtype receptors
Settings: CHO cell membranes, [3H]arginine vasopressin; for IC50: values in parentheses; for inhibition at 0.1 µM: 100 nM, values without parentheses
How it was run: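 Radioligand displacement on membranes from CHO cells stably expressing human V2 receptor, 25 to 50 μg protein/well, in 50 mM Tris-HCl pH 7.4 with MgCl2, BSA and protease inhibitors. [^3H]arginine vasopressin (8 nM working solution) incubated 60 min at room temperature; bound label measured by filtration and scintillation counting.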

T1 sequence (P30518 whole entry): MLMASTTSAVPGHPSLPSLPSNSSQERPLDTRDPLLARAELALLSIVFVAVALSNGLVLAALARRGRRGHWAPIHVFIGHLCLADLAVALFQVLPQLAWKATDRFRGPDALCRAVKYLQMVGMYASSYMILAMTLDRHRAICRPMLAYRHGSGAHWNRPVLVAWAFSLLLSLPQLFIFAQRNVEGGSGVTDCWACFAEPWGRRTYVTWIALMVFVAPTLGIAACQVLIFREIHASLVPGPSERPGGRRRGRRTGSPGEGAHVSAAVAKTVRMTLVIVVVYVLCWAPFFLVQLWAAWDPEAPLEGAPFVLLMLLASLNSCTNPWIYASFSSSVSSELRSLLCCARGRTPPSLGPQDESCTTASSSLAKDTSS

| Compound | IC50 [nM] | inhibition at 0.1 µM [%] |
| --- | --- | --- |
| COc1cc(-c2ccccc2C)c(Cl)cc1C(=O)N1Cc2ccc(C(=O)N3CCC(N4CCCCC4)CC3)n2Cc2ccccc21 [Example 110, {10-[(6-Chloro-3-methoxy-2′-methyl[1,1′-biphenyl]-4-yl)carbonyl]-10,11-dihydro-5H-pyrrolo[2,1-c][1,4]benzodiazepin-3-yl}[4-(1-piperidinyl)-1-piperidinyl]methanone] | 788 |  |
| CN(C)CCN(C)C(=O)c1ccc2n1Cc1ccccc1N(C(=O)c1ccc(-c3cccc4ccccc34)cc1Cl)C2 [Example 96, 10-[2-Chloro-4-(1-naphthyl)benzoyl]-N-[2-(dimethylamino)ethyl]-N-methyl-10,11-dihydro-5H-pyrrolo[2,1-c][1,4]benzodiazepine-3-carboxamide] |  | 24 |
| COc1cc(C(=O)N2Cc3ccc(C(=O)N4CCC[C@H]4CN4CCCC4)n3Cc3ccccc32)ccc1-c1ccccc1C(F)(F)F [Example 20, {[10-(2-Methoxy)-2′-trifluoromethyl-[1,1′-biphenyl]-4-yl]carbonyl}-[(2S)-[(2-pyrrolidin-1-yl)methyl]pyrrolidin-1-yl]-10,11-dihydro-5H-pyrrolo[2,1-c][1,4]benzodiazepin-3-yl-methanone] | 4360 |  |
| COc1cc(C(=O)N2Cc3ccc(C(=O)N(C)CCCN(C)C)n3Cc3ccccc32)ccc1-c1ccccc1C(F)(F)F [Example 21, N-Methyl-[N-(3-dimethylamino)propyl]-10-{[2-methoxy-2′-trifluoromethyl-[1,1′-biphenyl]-4-yl]carbonyl}-10,11-dihydro-5H-pyrrolo[2,1-c][1,4]benzodiazepin-3-carboxamide] | 1160 |  |
| COc1cc(C(=O)N2Cc3ccc(C(=O)N(C)CCN(C)C)n3Cc3ccccc32)ccc1-c1cccc2ccccc12 [Example 93, N-[2-(Dimethylamino)ethyl]-10-[3-methoxy-4-(1-naphthyl)benzoyl]-N-methyl-10,11-dihydro-5H-pyrrolo[2,1-c][1,4]benzodiazepine-3-carboxamide] |  | 36 |
| COc1cccc(-c2ccc(C(=O)N3Cc4ccc(C(=O)N5CCC[C@H]5CN5CCCC5)n4Cc4ccccc43)cc2C)c1 [Example 263, {10-[(3′-Methoxy-2-methyl[1,1′-biphenyl]-4-yl)carbonyl]-10,11-dihydro-5H-pyrrolo[2,1-c][1,4]benzodiazepin-3-yl}[(2S)-2-(1-pyrrolidinylmethyl)pyrrolidinyl]methanone] | 4120 |  |
| COc1cccc(-c2ccc(C(=O)N3Cc4ccc(C(=O)N5CC[C@@H](N(C)C)C5)n4Cc4ccccc43)cc2C)c1 [Example 278, [(3R)-3-(Dimethylamino)pyrrolidinyl]{10-[(3′-methoxy-2-methyl[1,1′-biphenyl]-4-yl)carbonyl]-10,11-dihydro-5H-pyrrolo[2,1-c][1,4]benzodiazepin-3-yl}methanone] | 1680 |  |
| COc1cc(-c2ccccc2F)c(Cl)cc1C(=O)N1Cc2cccn2Cc2ccccc21 [Example 18B, 10-{[6-Chloro-3-methoxy-2′-fluoro-[1,1′-biphenyl]-4-yl]carbonyl}-10,11-dihydro-5H-pyrrolo[2,1-c][1,4]benzodiazepine] | 189 |  |
| Cc1cc(C(=O)N2Cc3ccc(C(=O)N4CCN(CCN(C)C)CC4)n3Cc3ccccc32)ccc1-c1ccccc1C(F)(F)F [Example 196, {4-[2-(Dimethylamino)ethyl]-1-piperazinyl}(10-{[2-methyl-2′-(trifluoromethyl)[1,1′-biphenyl]-4-yl]carbonyl}-10,11-dihydro-5H-pyrrolo[2,1-c][1,4]benzodiazepin-3-yl)methanone] | 855 |  |
| COc1ccccc1-c1ccc(C(=O)N2Cc3ccc(C(=O)N(C)CCN(C)C)n3Cc3ccccc32)cc1 [Example 90, N-[2-(Dimethylamino)ethyl]-10-[(2′-methoxy[1,1′-biphenyl]-4-yl)carbonyl]-N-methyl-10,11-dihydro-5H-pyrrolo[2,1-c][1,4]benzodiazepine-3-carboxamide] |  | 19 |
| COc1cc(-c2ccccc2C)c(Cl)cc1C(=O)N1Cc2ccc(C(=O)N(C)CCN(C)C)n2Cc2ccccc21 [Example 86, 10-[(6-Chloro-3-methoxy-2′-methyl[1,1′-biphenyl]-4-yl)carbonyl]-N-[2-(dimethylamino)ethyl]-N-methyl-10,11-dihydro-5H-pyrrolo[2,1-c][1,4]benzodiazepine-3-carboxamide] | 1700 |  |
| COc1ccccc1-c1ccc(C(=O)N2Cc3ccc(C(=O)N(C)CCN(C)C)n3Cc3ccccc32)cc1OC [Example 94, 10-[(2,2′-Dimethoxy[1,1′-biphenyl]-4-yl)carbonyl]-N-[2-(dimethylamino)ethyl]-N-methyl-10,11-dihydro-5H-pyrrolo[2,1-c][1,4]benzodiazepine-3-carboxamide] |  | 26 |
| COc1cc(-c2ccccc2C)c(Cl)cc1C(=O)N1Cc2ccc(C(=O)N3CCCN(C)CC3)n2Cc2ccccc21 [Example 60, {10-[(6-Chloro-3-methoxy-2′-methyl[1,1′-biphenyl]-4-yl)carbonyl]-10,11-dihydro-5H-pyrrolo[2,1-c][1,4]benzodiazepin-3-yl}(4-methyl-1,4-diazepan-1-yl)methanone] | 1200 |  |
| Cc1cc(C(=O)N2Cc3ccc(C(=O)N4CCC[C@H]4CN4CCCC4)n3Cc3ccccc32)ccc1-c1ccccc1C(F)(F)F [Example 258, (10-{[2-Methyl-2′-(trifluoromethyl)[1,1′-biphenyl]-4-yl]carbonyl}-10,11-dihydro-5H-pyrrolo[2,1-c][1,4]benzodiazepin-3-yl)[(2S)-2-(1-pyrrolidinylmethyl)pyrrolidinyl]methanone] | 5680 |  |
| Cc1cc(C(=O)N2Cc3ccc(C(=O)N4CCCN(C)CC4)n3Cc3ccccc32)ccc1-c1ccccc1C(F)(F)F [Example 59, (4-Methyl-1,4-diazepan-1-yl)(10-{[2-methyl-2′-(trifluoromethyl)[1,1′-biphenyl]-4-yl]carbonyl}-10,11-dihydro-5H-pyrrolo[2,1-c][1,4]benzodiazepin-3-yl)methanone] | 2310 |  |
| C=CCN1CCN(C(=O)c2ccc3n2Cc2ccccc2N(C(=O)c2cc(Cl)c(-c4ccccc4C)cc2OC)C3)CC1 [Example 219, (4-Allyl-1-piperazinyl){10-[(6-chloro-3-methoxy-2′-methyl[1,1′-biphenyl]-4-yl)carbonyl]-10,11-dihydro-5H-pyrrolo[2,1-c][1,4]benzodiazepin-3-yl}methanone] | 1320 |  |
| Cc1cc(C(=O)N2Cc3ccc(C(=O)N(C)CCN(C)C)n3Cc3ccccc32)ccc1-c1ccccc1C(F)(F)F [Example 85, N-[2-(Dimethylamino)ethyl]-N-methyl-10-{[2-methyl-2′-(trifluoromethyl)[1,1′-biphenyl]-4-yl]carbonyl}-10,11-dihydro-5H-pyrrolo[2,1-c][1,4]benzodiazepine-3-carboxamide] | 3130 |  |
| Cc1ccccc1-c1ccc(C(=O)N2Cc3ccc(C(=O)N(C)CCCN(C)C)n3Cc3ccccc32)cc1C [Example 101, N-[3-(Dimethylamino)propyl]-10-[(2,2′-dimethyl[1,1′-biphenyl]-4-yl)carbonyl]-N-methyl-10,11-dihydro-5H-pyrrolo[2,1-c][1,4]benzodiazepine-3-carboxamide] |  | 7 |
| COc1ccccc1-c1ccc(C(=O)N2Cc3ccc(C(=O)N4CCN(CCN5CCOCC5)CC4)n3Cc3ccccc32)cc1 [Example 207, {10-[(2′-Methoxy[1,1′-biphenyl]-4-yl)carbonyl]-10,11-dihydro-5H-pyrrolo[2,1-c][1,4]benzodiazepin-3-yl}{4-[2-(4-morpholinyl)ethyl]-1-piperazinyl}methanone] | 601 |  |
| COc1cc(-c2ccccc2C)c(Cl)cc1C(=O)N1Cc2ccc(C(=O)N(C)CCCN(C)C)n2Cc2ccccc21 [Example 98, 10-[(6-Chloro-3-methoxy-2′-methyl[1,1′-biphenyl]-4-yl)carbonyl]-N-[3-(dimethylamino)propyl]-N-methyl-10,11-dihydro-5H-pyrrolo[2,1-c][1,4]benzodiazepine-3-carboxamide] | 1030 |  |
| COc1cc(-c2ccccc2C)c(Cl)cc1C(=O)N1Cc2ccc(C(=O)N3CCN(C)CC3)n2Cc2ccccc21 [Example 47, {10-[(6-Chloro-3-methoxy-2′-methyl[1,1′-biphenyl]-4-yl)carbonyl]-10,11-dihydro-5H-pyrrolo[2,1-c][1,4]benzodiazepin-3-yl}(4-methyl-1-piperazinyl)methanone] | 722 |  |
| C=CCN1CCN(C(=O)c2ccc3n2Cc2ccccc2N(C(=O)c2ccc(-c4ccccc4C)c(C)c2)C3)CC1 [Example 220, (4-Allyl-1-piperazinyl){10-[(2,2′-dimethyl[1,1′-biphenyl]-4-yl)carbonyl]-10,11-dihydro-5H -pyrrolo[2,1-c][1,4]benzodiazepin-3-yl}methanone] | 1820 |  |
| CN(C)CCCNC(=O)c1ccc2n1Cc1ccccc1N(C(=O)c1ccc(-c3cccc4ccccc34)cc1Cl)C2 [Example 83, 10-[2-Chloro-4-(1-naphthyl)benzoyl]-N-[3-(dimethylamino)propyl]-10,11-dihydro-5H-pyrrolo[2,1-c][1,4]benzodiazepine-3-carboxamide] |  | 18 |
| COc1ccccc1-c1ccc(C(=O)N2Cc3ccc(C(=O)NCCCN(C)C)n3Cc3ccccc32)cc1OC [Example 81, 10-[(2,2′-Dimethoxy[1,1′-biphenyl]-4-yl)carbonyl]-N-[3-(dimethylamino)propyl]-10,11-dihydro-5H-pyrrolo[2,1-c][1,4]benzodiazepine-3-carboxamide] |  | 21 |
| Cc1cc(C(=O)N2Cc3ccc(C(=O)NC(=N)N)n3Cc3ccccc32)ccc1-c1ccccc1C(F)(F)F [Example 8, N-[(10-{[2-methyl-2′-(trifluoromethyl)[1,1′-biphenyl]-4-yl]carbonyl}-10,11-dihydro-5H-pyrrolo[2,1-c][1,4]benzodiazepin-3-yl)carbonyl]guanidine] | 1470 |  |
| COc1cc(C(=O)N2Cc3cccn3Cc3ccccc32)ccc1-n1c(C)ccc1C [Example 27, [4-(2,5-Dimethyl-1-H-pyrrol-1-yl)-3-methoxy-phenyl][10,11-dihydro-5H-pyrrolo[2,1-c][1,4]benzodiazepin-10-yl]methanone] | 149 |  |
